Assay results reported in US10450549B2, “Aryloxyphenoxypropionate tolerance in turfrgass species and use of AAD1 as a selectable marker” (Dow AgroSciences, LLC, priority 2004, dated 2019).

Key:
[1] = test system: Hi-II corn grown from seed; assay: Lethal dose of AOPP herbicides on non-transformed Hi-II corn
[2] = test system: creeping bentgrass cv Crenshaw callus; assay: Callus selection conditions with quizalofop and haloxyfop: creeping bentgrass; type: cell-based, Agrostis stolonifera
Protocol: Selection conditions for creeping bentgrass cv Crenshaw and Kentucky bluegrass cv Shamrock were established using the grass-active herbicides, quizalofop and haloxyfop. Concentrations of quizalofop and haloxyfop ranged from 0 to 300 nM dissolved in defined callus maintenance media for each species. Callus tissue, derived from mature seeds of each species or cultivar, was used in the experiment. In the case of creeping bentgrass cv Crenshaw, calli maintained on CBG-3 medium were transferred to plates of CBG-3 medium containing either haloxyfop or quizalofop at 0, 50, 100, 150, 200, 250, and 300 nM final concentrations. Visual observations (growth of callus and development of necrosis) were made over a period of 1.5 months. For Kentucky bluegrass cv Shamrock and experimental line A98, calli maintained on KBG-2 were transferred to plates of KBG-2 medium containing 0, 50, 100, 150, 200, 250, and 300 nM final concentrations of the herbicides. Visual observations of callus growth and necrosis were made over a 2.5 month period. […] The calli became necrotic at lower concentrations of quizalofop relative to haloxyfop and the response was more rapid. […]

[3] = test system: AAD1-transformed T0 ‘Crenshaw’ creeping bentgrass events (pDAB3878, pDAB5042); assay: Quizalofop-p-ethyl postemergence on AAD1-transformed T0 Crenshaw creeping bentgrass, visual % injury; type: in vivo, Agrostis stolonifera L. var. palustris
Protocol: After molecular confirmation was utilized to identify transgenic events, a number of transgenic events were tested for herbicide tolerance. Specific isolated transgenic events were selected and maintained vegetatively through division of the crowns and replanting the clonal pieces into fresh growth medium. Clonally propagated plants were maintained by periodic “mowing” of vegetative tissues.
Growth medium was prepared by mixing Promix® and sand in a 2 to 1 ratio. The medium was contained in plastic pots with a surface area of 84.6 square centimeters (cm^2). When required to maintain plant health, a fungicide, insecticide, and/or other chemical or physical treatment was applied to stock plants. The plants were maintained in a greenhouse with an approximate 14 hour photoperiod which was maintained at 24-27° C. during the day and 22-25° C. during the night. Nutrients (Peters Excel® 15-5-15 5-Ca 2-Mg and iron chelate) were applied in the irrigation solution as needed, and water was added on a regular basis. Supplemental lighting was provided with overhead metal halide 1000-Watt lamps when photosynthetically active radiation (PAR) dropped below 500.
(§1) Selected T0 plants were sprayed with quizalofop-p-ethyl (Assure II®, DUPONT, Wilmington, Del.) at rates ranging from 60 to 2,240 g ae/ha. […] This rate also controls susceptible monocot weed species. Measured amounts were placed individually in 25 mL glass vials and dissolved in a 4 mL volume of 1.0% (v/v) Agri-Dex® Crop Oil Concentrate (COC) from HELENA CHEMICAL (Collierville, Tenn.). Application solutions were prepared by serial dilution of the highest rate applied. One-half the volume of the highest rate stock solution (2 mL) was transferred to a clean 25 mL vial containing an equal volume of 1% COC and the diluted solution was mixed. Additional dilutions were prepared similarly by removing one-half the volume of the previous concentration (2 mL), and adding to an equal volume of 1% COC and mixing. When preparing the lowest concentration, the remaining one-half volume was discarded. All 2 mL stock solutions were further diluted by adding 10 mL aqueous mixture of 1.0% (v/v) COC, so that the final spray solutions were 12 mL in volume and contained 1.0% (v/v) COC.
(§2) Spray solutions were applied to the plant material with an overhead Mandel™ track sprayer equipped with a 8002E nozzles calibrated to deliver 187 L/ha over an application area of 0.503 square meters (m^2) at a spray height of 18 inches (46 cm) above average plant canopy height. Control plants were sprayed in the same manner with the COC blank.
(§3) The treated plants and control plants were placed in a greenhouse, and watered by sub-irrigation to prevent wash-off of the test compounds. At various times after application, the condition of the test plants as compared with that of the untreated plants was determined visually and scored on a scale of 0 to 100 percent (where 0 corresponds to no injury or growth inhibition and 100 corresponds to complete kill). Regenerated, non-transformed (NT) ‘Crenshaw’ or elite line 2905-2 creeping bentgrass plants and/or seed-derived clonally propagated plants served as quizalofop sensitive controls.

[4] = test system: non-transformed (NT) and seed-derived (WT) creeping bentgrass; assay: Quizalofop-p-ethyl postemergence on non-transformed / seed-derived creeping bentgrass controls; type: in vivo, Agrostis stolonifera L. var. palustris
Protocol: as §1, §2, §3

For `C[C@@H](Oc1ccc(Oc2cnc3cc(Cl)ccc3n2)cc1)C(=O)O` [quizalofop], the lethal dose ([1]; Assure II + 1% COC (v/v)) was 4.4 g ae/ha), the “rate that effectively kills (>95% injury) three to four leaf Hi-II corn” value ([1]; postemergence, commercial formulations) was 4.4 g ae/ha and the “concentration sufficient to kill callus within six weeks” value [2] was 150 nM. For the same molecule, the “mean injury, pDAB5042 Crenshaw events” value ([3]; 60, 120, 240 and 480 g ae/ha, 21 to 24 DAA) was “less than 10%”, the “mean injury, pDAB3878 Crenshaw events” value ([3]; 120 g ae/ha, 11 DAA) was “about 20%” and the “mean injury, pDAB3878 Crenshaw events” value ([3]; 120 g ae/ha, 14 DAA) was “about 25%”. The “mean injury, pDAB3878 Crenshaw events” value ([3]; 120 g ae/ha, 20 DAA) was “about 20%”, the “mean injury, pDAB3878 Crenshaw events” value ([3]; 480 g ae/ha, 11 DAA) was about 30% and the “mean injury, pDAB3878 Crenshaw events” value ([3]; 480 g ae/ha, 14 DAA) was about 30%. The “mean injury, pDAB3878 Crenshaw events” value ([3]; 480 g ae/ha, 20 DAA) was “about 20%”, the “injury of individual pDAB5042 Crenshaw events” value ([3]; 480 g ae/ha, 21-24 DAA, all events except 204 and 227) was at most 20% and the “injury of control, non-transgenic plants” value ([4]; 60 g ae/ha, 21 to 24 DAA) was “about 70%”. For the same molecule, the “injury of control, non-transgenic plants” value ([4]; 120 and 480 g ae/ha, 11, 14, 20 DAA) was “about 80% injury to greater than 90% injury”, the “injury of control, non-transgenic plants” value ([4]; 120 g ae/ha, 21 to 24 DAA) was about 80% and the “injury of control, non-transgenic plants” value ([4]; 240 g ae/ha, 21 to 24 DAA) was about 90%. The “injury of control, non-transgenic plants” value ([4]; 480 g ae/ha, 21 to 24 DAA) was about 100%.
